Data reported in patent US20090155228A1, “COMPOUNDS, KITS AND METHODS FOR CONFERRING CYTOPROTECTION” (priority 2006, published 2009).
Values joined by “and” are separate entries in the source; they are usually repeats but may differ in a detail not shown here. Equal entries are not always repeated.

What was measured:
CD80 = assay: FACS cell surface expression of CD80 on DCs; assay type: cell-based, human; conditions: PPARg activated DCs (2.5 μM RSG) with 1 μM KO143
Description: (§1) FACS analysis—Cell staining was performed using FITC- or PE-conjugated monoclonal antibodies: Labeled antibodies for flow cytometry included anti-CD1a-PE, CD1d-PE, CD80-PE, CD86-PE and isotype-matched controls (BD PharMingen). For the ABCG2 detection cells were fixed with 1% paraformaldehyde for 5 min, then incubated with unlabeled anti-ABCG2 (5D3) or isotype-matched control (R and D system) antibody for 30 min at 37° C., followed by staining with FITC-labeled anti-mouse antibody (BD PharMingen). The fluorescence of labeled cells was measured by using a FACSCalibur flow cytometer (Beckton Dickinson).

ABCG2 [1] = assay: Hoechst 33342 retention in DCs by CLSM and FACS; assay type: cell-based, human; conditions: stimulated DCs, 1 μM KO143
Description: Measurement of Hoechst retention by CLSM and FACS—DCs were plated on Lab-Tek coverslip chambers. Cells were incubated with 0.5 μg/ml Hoechst 33342 for 1 h at 37° C. with or without KO143 (1 μM), then subjected to microscopic analysis. Hoechst fluorescence was measured on a Zeiss LSM 510 confocal microscope with a Plan-Apochromat 60× (NA 1.4) oil immersion objective using maximal detection pinhole diameter (1 mm) to get signal from the whole depth of the nucleus. Hoechst was excited by the 351 and 364 nm lines of an Ar ion laser, emission was measured through a 385-to-470 nm bandpass filter.
Hoechst content was also measured on a Becton Dickinson FACSVantage flow cytometer. Hoechst fluorescence was excited by the 351 and 364 nm lines and the blue and red Hoechst signals were detected through 402-to-446 nm and >650 nm filters, respectively.

CD1a [2] = assay: FACS cell surface expression of CD1a on DCs; assay type: cell-based, human; conditions: PPARg activated DCs (2.5 μM RSG) with 1 μM KO143
Description: as §1

CD86 = assay: FACS cell surface expression of CD86 on DCs; assay type: cell-based, human; conditions: PPARg activated DCs (2.5 μM RSG) with 1 μM KO143
Description: as §1

DCs = conditions: MTT
Description: Cytotoxicity assay—Cytotoxicity assays were carried out using the MTT assay. Briefly, cells were plated in 96-well plates at a density of 10^5 cells per well. Mitoxantrone at various concentrations with or without KO143 was added to DCs and cells were incubated at 37° C. for 48 h. After incubation, cytotoxicity was assessed by using the MTT assay.

FABP4 [3] = assay: RT-Q-PCR FABP4 transcript level in monocyte-derived DCs; assay type: cell-based, human
Description: (§2) Cell culture and ligand treatment—Monocytes (98% CD14+) were obtained from buffy coats by Ficoll gradient centrifugation and immunomagnetic cell separation using anti-CD14-conjugated microbeads (VarioMACS; Miltenyi Biotec). DCs were prepared as described previously (Szatmari, I. et al. (2004) Immunity 21, 95-106). In brief, monocytes were resuspended into six-well culture dishes at a density of 1.5×10^6 cells/ml and cultured in RPMI 1640 supplemented with 10% FBS (Invitrogen), containing 800 U/ml GM-CSF (Leucomax) and 500 U/ml IL-4 (Peprotech). Cells were cultured for 5 or 6 days (unless otherwise indicated) and the IL-4 and GM-CSF addition was repeated at day 3. Ligands or vehicle control (50% DMSO/ethanol) were added to the cell culture from the first day on. MonoMac-6 (MM6) cells were a kind gift of E. Duda (Biological Research Center, Szeged, Hungary). These cells were cultured in RPMI 1640 supplemented with 10% FBS.

CD1a [4] = assay: RT-Q-PCR CD1a transcript level in DCs; assay type: cell-based, human; conditions: PPARg activated DCs with 1 μM KO143; relative to cyclophilin A
Description: as §2

CD1d = assay: FACS cell surface expression of CD1d on DCs; assay type: cell-based, human; conditions: PPARg activated DCs (2.5 μM RSG) with 1 μM KO143
Description: as §1

ABCG2 [5] = assay: Mitoxantrone uptake in DCs by FACS; assay type: cell-based, human; conditions: 30 min
Description: Measurement of mitoxantrone uptake by FACS analyses—Cells were resuspended in phenol red free HPMI medium containing the desired fluorescent compound (20 μM mitoxantrone) with or without KO143 (1 μM) and incubated at 37° C. for 30 min, Thereafter the cells were washed with cold HPMI and subjected to flow cytometric analyses. The cells were assessed for fluorescence intensity with a FACSCalibur cytometer (Beckton Dickinson).

[6] = patients treated with 4 mg RSG; cited from earlier work
ABCG2 [7] = assay: RT-Q-PCR ABCG2 transcript level in monocyte-derived DCs; assay type: cell-based, human
Description: (§3) Cell culture and ligand treatment—Monocytes (98% CD14+) were obtained from buffy coats by Ficoll gradient centrifugation and immunomagnetic cell separation using anti-CD14-conjugated microbeads (VarioMACS; Miltenyi Biotec). […] Cells were cultured for 5 or 6 days (unless otherwise indicated) and the IL-4 and GM-CSF addition was repeated at day 3. Ligands or vehicle control (50% DMSO/ethanol) were added to the cell culture from the first day on. MonoMac-6 (MM6) cells were a kind gift of E. Duda (Biological Research Center, Szeged, Hungary).

ABCG2 [8] = assay: Flow cytometry of ABCG2 cell surface expression in DCs (5D3 antibody); assay type: cell-based, human; conditions: DCs treated with RSG plus GW9662
Description: as §1

FABP4 [9] = assay: RT-Q-PCR FABP4 transcript in MM6 cells; assay type: cell-based; conditions: after RSG alone or with LG268, 24 h
Description: (§4) RNA interference—For siRNA delivery the AMAXA's Nucleofection technology (AMAXA) was applied. MM6 cells (1×10^6) were harvested and electroporated with 1.5 μg siRNA using the Cell line nucleofector kit V (AMAXA), program v-001. Applicants used a previously described PPARg specific siRNA sequence (Kelly, D. et al. (2004) Nat Immunol 5, 104-112): […]-d(TT) (SEQ ID NO. 10). As a negative control, Silencer Negative Control 1 siRNA (Ambion) was used.
as §2

PPARd = assay: RT-Q-PCR PPARd transcript in MM6 cells after RNA interference; assay type: cell-based; conditions: MM6 cells electroporated with 1.5 μg siRNA
Description: as §4, §2

PPARg = assay: RT-Q-PCR PPARg transcript in MM6 cells after RNA interference; assay type: cell-based; conditions: MM6 cells electroporated with 1.5 μg siRNA
Description: as §4, §2

ABCG2 [10] = assay: RT-Q-PCR ABCG2 transcript in MM6 cells; assay type: cell-based; conditions: after RSG alone or with LG268, 24 h
Description: as §4, §2

ABCA1 = assay: RT-Q-PCR ABCA1 mRNA level in DCs; assay type: cell-based, human; conditions: DCs cultured 24 h, 1 μM RSG or 1 μM T0901317
Description: as §3

ABCG1 = assay: RT-Q-PCR ABCG1 mRNA level in DCs; assay type: cell-based, human; conditions: DCs cultured 24 h, 1 μM RSG or 1 μM T0901317
Description: as §3

[11] = target: T1, PPARgamma:RXRalpha heterodimer (Mus musculus (PPARg); Homo sapiens …, UniProt P37238;P19793 P37238:1-505,P19793:1-462); assay: competition; cold mutant at x10 and x20 does not compete; conditions: tags: T7 Quick TNT, full-length
[12] = target: T1, PPARgamma:RXRalpha heterodimer; assay: EMSA; supershift with both antibodies; some aspecific binding also in blank; conditions: tags: T7 Quick TNT, full-length; label: 32P
[13] = target: T1, PPARgamma:RXRalpha heterodimer; assay: EMSA; supershift with anti-RXRa and anti-PPARg; competed by cold WT; conditions: tags: T7 Quick TNT, full-length; label: 32P
[14] = ligand treated monocyte-derived DCs: 2.5 μM RSG, 100 nM GW347845X, 1 μM troglitazone, relative to 36B4

## COc1ccc2c3c([nH]c2c1)[C@H](CC(C)C)N1C(=O)[C@H](CCC(=O)OC(C)(C)C)NC(=O)[C@@H]1C3 [KO143]
CD80
  Cell surface expression of CD80 with ABCG2 inhibitor: did not change
ABCG2 [1]
  Effect of ABCG2 inhibitor on reduced Hoechst dye accumulation: abolished the effect of the PPARg ligand treatment
CD1a [2]
  Cell surface expression of CD1a with ABCG2 inhibitor: slightly decreased
CD86
  Cell surface expression of CD86 with ABCG2 inhibitor: did not change
DCs; RSG treated DCs with KO143, 48 h
  Effect of ABCG2 inhibitor on protection against mitoxantrone: removed this protective effect
FABP4 [3]; PPARg activated DCs with 1 μM KO143, relative to cyclophilin A
  Transcript level of FABP4 with ABCG2 inhibitor: did not change
CD1a [4]
  CD1a mRNA expression with ABCG2 inhibitor: reduced
CD1d
  Cell surface expression of CD1d with ABCG2 inhibitor: did not change
ABCG2 [5]; 1 μM KO143, 20 μM mitoxantrone
  Mitoxantrone extrusion by ABCG2 in activated cells: fully inhibited

## O=C1c2c(O)ccc(O)c2C(=O)c2c(NCCNCCO)ccc(NCCNCCO)c21 [mitoxantrone]
DCs; mitoxantrone 1.25 or 2.5 μg/ml, 48 h
  Cell viability of control DCs: induced cell death
ABCG2 [5]; 20 μM mitoxantrone
  Mitoxantrone accumulation in control DCs: rapid

## CN(CCOc1ccc(CC2SC(=O)NC2=O)cc1)c1ccccn1 (centres unmarked) [rosiglitazone]
[6]
  Plasma concentration: 50-350 ng/ml and 100-1000 nM

## COC(=O)c1ccccc1N[C@@H](Cc1ccc(OCCc2nc(-c3ccccc3)oc2C)cc1)C(=O)O [GW347845X]
FABP4 [3]; [14]
  FABP4 mRNA expression: induced
ABCG2 [7]; [14]
  ABCG2 mRNA expression: induced

## O=C(Nc1ccccc1)c1cc([N+](=O)[O-])ccc1Cl [GW9662]
ABCG2 [8]
  Cell surface expression of ABCG2 protein with PPARg antagonist: reduced
ABCG2 [7]; DCs, 2.5 μM RSG with 5 μM GW9662
  Effect of PPARg antagonist on RSG induction of ABCG2 mRNA: abolished the induction of ABCG2

## GCCCTTCACTACTGTTGAC-d(TT) (sense GCCCTTCACTACTGTTGACTT; 3' dTdT overhang, further chemistry not given here) [PPARg-specific siRNA]
FABP4 [9]
  Induction of FABP4 in siRNA treated MM6 cells: impaired induction
PPARd
  Expression of PPARd: did not interfere
PPARg
  Expression of endogenous PPARg: effectively inhibited
ABCG2 [10]
  Induction of ABCG2 in siRNA treated MM6 cells: impaired induction

## O=S(=O)(c1ccccc1)N(CC(F)(F)F)c1ccc(C(O)(C(F)(F)F)C(F)(F)F)cc1 [T0901317]
ABCA1
  ABCA1 mRNA expression: profound upregulation
ABCG1
  ABCG1 mRNA expression: profound upregulation
ABCG2 [7]; DCs cultured 24 h, 1 μM T0901317
  ABCG2 mRNA expression with LXR specific agonist: did not affect

B1: ABCG2 element B mut (dsDNA)
DNA 1: GGGCACATTGAGAAAGGTTAAGTGA
DNA 2: TCACTTAACCTTTCTCAATGTGCCC
[11]
  binding result: no binding

B2: ABCG2 element B WT (dsDNA)
DNA 1: GGGCACAAGGTTAAAGGTTAAGTGA
DNA 2: TCACTTAACCTTTAACCTTGTGCCC
[12]
  binding result: binds

B3: ABCG2 element C WT (dsDNA)
DNA 1: GGTCATTAGGTCAGATGTTAGATGA
DNA 2: TCATCTAACATCTGACCTAATGACC
[12]
  binding result: binds

B4: ABCG2 element C mut (dsDNA)
DNA 1: GGTCATTTCGAGAGATGTTAGATGA
DNA 2: TCATCTAACATCTCTCGAAATGACC
[11]
  binding result: no binding

B5: ABCG2 element A WT (dsDNA)
DNA 1: GGGGTGGAGGGCAGAGGGCAATGGC
DNA 2: GCCATTGCCCTCTGCCCTCCACCCC
[13]
  binding result: binds

B6: ABCG2 element A mut (dsDNA)
DNA 1: GGGGTGGGCGAGAGAGGGCAATGGC
DNA 2: GCCATTGCCCTCTCTCGCCCACCCC
[11]
  binding result: no binding
